Measurements taken from paper PMC11242996, “IL-6 Inhibitory Compounds from the Aerial Parts of Piper attenuatum and Their Anticancer Activities on Ovarian Cancer Cell Lines” (Molecules, 2024).
Like-named read-outs stand apart in the source and are kept apart here.

What was measured:
[1] = tested on: IL-6 activity in HEK-Blue™ IL-6 cells; assay: IL-6 inhibition bioassay using HEK-Blue IL-6 cells (STAT3-inducible SEAP reporter, QUANTI-Blue); format: cell-based, human; settings: for EC50: 10 ng/mL IL-6, 24 h, SEAP readout, read-out: EC50 (IL-6 inhibitory activity); for inhibition of IL-6 activity: 10 ng/ml hIL-6, 24 h (Figure S22)
Experimental: We isolated eighteen compounds from P. attenuatum and assessed their inhibitory effects on IL-6 activity using the HEK-Blue™ IL-6 cell line. As the HEK-Blue™ IL-6 cells were transfected with a reporter gene expressing STAT3-inducible secreted embryonic alkaline phosphatase (SEAP), STAT3 was activated, and SEAP was produced when the cells were stimulated with IL-6. The extent of the inhibition of IL-6 downstream signaling by these compounds was assessed in vitro using bazedoxifene (gp130 inhibitor) as a positive control in the HEK-Blue™ IL-6 cells. Bazedoxifene is a newly developed third-generation indole-based estrogen receptor (ER) ligand used in the treatment of postmenopausal osteoporosis, also known as gp130 inhibitor.
The cells were treated with increasing concentrations of the eighteen isolated compounds (0, 0.1, 1, 5, 10, 50, and 100 μM) in the presence of 10 ng/mL IL-6.
(§1) The HEK-Blue™ IL-6 cells purchased from InvivoGen (San Diego, CA, USA) were used to seed 3 × 10^4 cells/200 µL in a 96-well plate. Each well was treated with different concentrations (0, 0.1, 1, 5, 10, 50, and 100 μM) of the isolated compounds. Recombinant human IL-6 (BioLegend, San Diego, CA, USA) was administered at 10 ng/mL. After 24 h, 20 μL of the cell suspension was added to 180 μL of QUANTI-Blue™ solution (InvivoGen, San Diego, CA, USA) in a fresh 96-well plate. After incubation at 37 °C for 2 h, the absorbance was measured spectrophotometrically (Epoch, BioTek Instruments, Winooski, VT, USA) at 635 nm. The EC50 values were calculated from a log([drug]) versus normalized response curve fit using GraphPad Prism version 5.00 for Windows (GraphPad Software, San Diego, CA, USA). The CC50 values were calculated from extrapolated concentration–response curves plotted with GraphPad Prism version 5.0 for Windows (GraphPad Software, San Diego, CA, USA) using inhibitory percentages versus the drug concentration logarithm.

SKOV3 cells = assay: CCK-8 cytotoxicity assay, SKOV3; format: cell-based, human; settings: CCK-8, 24 h
Excerpt: (§2) However, despite chemotherapy, many patients die of ovarian cancer recurrence. Inflammatory mediators such as IL-6 and several other cytokines influence drug resistance and recurrence in ovarian cancer.
(§3) The human epithelial ovarian cancer cell lines SKOV3 and A2780 were purchased from the Korean Cell Line Bank (KCLB, Seoul, Republic of Korea) and the European Collection of Cell Cultures (ECACC, Wiltshire, UK), respectively. The cisplatin-resistant A2780 (A2780-cis) and paclitaxel-resistant SKOV3 (SKOV3-TR) cells were obtained from Yonsei University (Institute of Women’s Life Medical Science, Division of Gynecological Oncology, Republic of Korea). SKOV3, SKOV3-TR, A2780, and A2780-cis cells were cultured in the RPMI-1640 medium (Welgene, Daegu, Republic of Korea). SKOV3-TR and A2780-cis cells were cultured in 100 nM paclitaxel (Cayman Chemical Company, Ann Arbor, MI, USA) and 1 µM cisplatin (Dong-A Pharmaceutical Co., Seoul, Republic of Korea), respectively. All the culture media were supplemented with 10% (v/v) fetal bovine serum and 1% penicillin or streptomycin (Gibco-BRL, Gaithersburg, MD, USA), and the cells were maintained at 37 °C in a humidified atmosphere of 5% CO2 and 95% air. Each culture medium was replaced with a fresh medium every 2–3 days.
(§4) A CCK-8 assay was performed to assess cytotoxicity. After seeding 5 × 10^5 cells/300 µL in 48-well plates, the cells were treated with the isolated compounds at 1, 5, 10, 20, 40, and 60 μM concentrations for 24 h. For the CCK-8 analysis, 30 μL of the CCK-8 solution (Dojindo, Kumamoto, Japan) was added to each well, allowed to react for 1 h, and then, the optical density value was measured at 450 nm using an ELISA microplate reader (Epoch, BioTek Instruments, Winooski, VT, USA). All the experiments were performed in triplicates. The IC50 values were calculated from a log([drug]) versus normalized response curve fit using GraphPad Prism version 5.00 for Windows (GraphPad Software, San Diego, CA, USA).

[2] = Cytotoxicity (CC50) in HEK-Blue IL-6 cells; format: cell-based; settings: human, from extrapolated concentration-response curves
Experimental: as §1

A2780 cells = assay: CCK-8 cytotoxicity assay, A2780; format: cell-based, human; settings: CCK-8, 24 h
Excerpt: as §2, §3, §4

[3] = tested on: paclitaxel-resistant SKOV3 (SKOV3-TR) cells; assay: CCK-8 cytotoxicity assay, SKOV3-TR; format: cell-based; settings: Homo sapiens, SKOV3TR, CCK-8, 24 h
Excerpt: as §2, §3, §4

[4] = tested on: cisplatin-resistant A2780 (A2780-cis) cells; assay: CCK-8 cytotoxicity assay, A2780-cis; format: cell-based; settings: Homo sapiens, A2780cis, CCK-8, 24 h
Excerpt: as §2, §3, §4

[5] = Homo sapiens, HEK-Blue IL-6, 24 h

For `Cc1c(-c2ccc(O)cc2)n(Cc2ccc(OCCN3CCCCCC3)cc2)c2ccc(O)cc12` [Bazedoxifene, bazedoxifene, reference compound], the “TI (therapeutic index, CC50/EC50)” value [1] was 2.14 ± 0.78, the EC50 [1] was 1.91 ± 0.43 µM and the EC50 [1, 5] was 1.91 ± 2.84 µM. For the same molecule, the “TI (therapeutic index, CC50/EC50)” value ([1]; listed as bazedoxifene) was 2.14, the IC50 (SKOV3 cells; Homo sapiens, SK-OV-3, 24 h) was 7.25 ± 0.62 µM and the CC50 at 24 h [2] was 4.07 ± 0.35 µM. The IC50 (A2780 cells; Homo sapiens, A2780, 24 h) was 8.2 ± 1.77 µM, the IC50 [3] was 20.32 ± 0.2 µM and the IC50 [4] was 33.8 ± 0.15 µM.

With `COc1ccc(CC2=C(Cc3ccc4c(c3)OCO4)C(=O)NC2OC)cc1OC` (stereo not drawn) [Compound 3, piperimide III] the “inhibition of IL-6 activity” value [1] was “approximately 50%”, the EC50 [1, 5] was 3.52 ± 0.14 µM and the IC50 (SKOV3 cells; Homo sapiens, SK-OV-3, 24 h) was 15.76 ± 0.15 µM. The CC50 at 24 h [2] was 28.7 ± 0.19 µM, the IC50 (A2780 cells; Homo sapiens, A2780, 24 h) was 17.5 ± 0.19 µM and the IC50 [3] was 41 ± 1.18 µM. It also gave an IC50 [4] of 40.5 ± 1.11 µM.

For `COc1ccc(C[C@H]2COC(=O)[C@@H]2Cc2ccc(OC)c(OC)c2)cc1OC` [Compound 4, (-)-dimethylmatairesinol], the “inhibition of IL-6 activity” value [1] was “approximately 50%”, the EC50 [1, 5] was 4.06 ± 0.07 µM and the IC50 (SKOV3 cells; Homo sapiens, SK-OV-3, 24 h) was 20.04 ± 0.18 µM. For the same molecule, the CC50 at 24 h [2] was 22.6 ± 0.25 µM, the IC50 (A2780 cells; Homo sapiens, A2780, 24 h) was 20.6 ± 0.25 µM and the IC50 [3] was 33 ± 0.5 µM. The IC50 [4] was 16.9 ± 0.19 µM.

For `CC(=O)/C=C/[C@@]1(O)C(C)=CC(=O)CC1(C)C` [Compound 11, (6S)-dehydrovomifoliol], the “inhibition of IL-6 activity” value [1] was “approximately 50%”, the EC50 [1, 5] was 2.12 ± 0.04 µM and the IC50 (SKOV3 cells) was 10.7 ± 0.14 µM. The IC50 (SKOV3 cells; Homo sapiens, SK-OV-3, 24 h) was roughly 10 µM, the CC50 at 24 h [2] was 13.72 ± 0.11 µM and the IC50 (A2780 cells) was 9.8 ± 0.11 µM. For the same molecule, the IC50 (A2780 cells; Homo sapiens, A2780, 24 h) was roughly 10 µM, the IC50 [3] was 19.9 ± 0.22 µM and the IC50 [4] was 14.4 ± 0.21 µM.

In the case of `CC1(C)C[C@@H](O)C[C@@]2(C)OC(=O)C=C12` [Compound 12, (-)-loliolide], the “inhibition of IL-6 activity” value [1] is reported as “approximately 50%”, the EC50 [1, 5] is reported as 0.91 ± 0.04 µM and the IC50 (SKOV3 cells) is reported as 10.7 ± 0.31 µM. The IC50 (SKOV3 cells; Homo sapiens, SK-OV-3, 24 h) was roughly 10 µM, the CC50 at 24 h [2] was 10.6 ± 0.1 µM and the IC50 (A2780 cells) was 8.62 ± 0.1 µM. The IC50 (A2780 cells; Homo sapiens, A2780, 24 h) was roughly 10 µM, the IC50 [3] was 6.44 ± 0.1 µM and the IC50 [4] was 16.6 ± 0.18 µM.

In the case of `O=c1cc(-c2ccc(O)cc2)oc2c(C3OC(CO)C(O)C(O)C3OC3OCC(O)(CO)C3O)c(O)cc(O)c12` (stereo not drawn) [Compound 17, ficuflavoside], the “inhibition of IL-6 activity” value [1] is reported as “approximately 50%”, the EC50 [1, 5] is reported as 1.31 ± 0.05 µM and the IC50 (SKOV3 cells; Homo sapiens, SK-OV-3, 24 h) is reported as 26.6 ± 0.3 µM. The CC50 at 24 h [2] was 32.5 ± 0.45 µM, the IC50 (A2780 cells; Homo sapiens, A2780, 24 h) was 21.8 ± 0.45 µM and the IC50 [3] was 40.3 ± 0.85 µM. The IC50 [4] was 41 ± 0.63 µM.
